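Protocol summary: plate cells (96-well), add compound at 5 concentrations, incubate 48 h, interpolate endpoints linearly. The concentration for full growth arrest is given as TGI.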
Assays:
Assay in all cases: NCI-60 cell line screen, 48 h
MOLT-4 leukemia = system: MOLT-4 leukemia
M14 melanoma = system: M14 melanoma
MDA-N = system: MDA-N
OVCAR-5 ovarian = system: OVCAR-5 ovarian
UO-31 renal = system: UO-31 renal
SK-MEL-5 melanoma = system: SK-MEL-5 melanoma
NCI/ADR-RES ovarian = system: NCI/ADR-RES ovarian
SF-295 CNS = system: SF-295 CNS
MDA-MB-435 = system: MDA-MB-435
A498 renal = system: A498 renal
NCI-H23 lung = system: NCI-H23 lung
KM12 colon = system: KM12 colon
RXF 393 renal = system: RXF 393 renal
SF-539 CNS = system: SF-539 CNS
A549 NSCLC = system: A549 NSCLC
DU-145 prostate = system: DU-145 prostate
HL-60(TB) leukemia = system: HL-60(TB) leukemia
MCF7 breast = system: MCF7 breast
OVCAR-3 ovarian = system: OVCAR-3 ovarian
CAKI-1 renal = system: CAKI-1 renal
UACC-62 melanoma = system: UACC-62 melanoma
UACC-257 melanoma = system: UACC-257 melanoma
T-47D breast = system: T-47D breast
RPMI-8226 leukemia = system: RPMI-8226 leukemia
BT-549 breast = system: BT-549 breast
OVCAR-4 ovarian = system: OVCAR-4 ovarian
LOX IMVI melanoma = system: LOX IMVI melanoma
SK-MEL-28 melanoma = system: SK-MEL-28 melanoma
SW-620 colon = system: SW-620 colon
SK-MEL-2 melanoma = system: SK-MEL-2 melanoma
TK-10 renal = system: TK-10 renal
SR leukemia = system: SR leukemia
IGROV1 ovarian = system: IGROV1 ovarian
SN12C renal = system: SN12C renal
SNB-19 CNS = system: SNB-19 CNS
NCI-H460 lung = system: NCI-H460 lung
OVCAR-8 ovarian = system: OVCAR-8 ovarian
U251 CNS = system: U251 CNS
MDA-MB-231 breast = system: MDA-MB-231 breast
HOP-62 NSCLC = system: HOP-62 NSCLC
EKVX NSCLC = system: EKVX NSCLC
HCT-116 colon = system: HCT-116 colon
NCI-H226 lung = system: NCI-H226 lung
K-562 leukemia = system: K-562 leukemia
HOP-92 NSCLC = system: HOP-92 NSCLC
HT29 colon = system: HT29 colon
PC-3 prostate = system: PC-3 prostate
HCT-15 colon = system: HCT-15 colon
ACHN renal = system: ACHN renal
786-0 renal = system: 786-0 renal
SK-OV-3 ovarian = system: SK-OV-3 ovarian
COLO 205 colon = system: COLO 205 colon
HCC-2998 colon = system: HCC-2998 colon
HS 578T breast = system: HS 578T breast
SNB-75 CNS = system: SNB-75 CNS
NCI-H522 lung = system: NCI-H522 lung
CCRF-CEM leukemia = system: CCRF-CEM leukemia
MALME-3M melanoma = system: MALME-3M melanoma
SF-268 CNS = system: SF-268 CNS

O=C(O)c1ccc([N+](=O)[O-])c(P(=O)(O)O)c1
TGI (MOLT-4 leukemia): > 100 µM | TGI (M14 melanoma): > 100 µM | TGI (MDA-N): > 100 µM | TGI (OVCAR-5 ovarian): > 100 µM | TGI (UO-31 renal): > 100 µM | TGI (SK-MEL-5 melanoma): > 100 µM | TGI (NCI/ADR-RES ovarian): > 100 µM | TGI (SF-295 CNS): > 100 µM | TGI (MDA-MB-435): > 100 µM | TGI (A498 renal): > 100 µM | TGI (NCI-H23 lung): > 100 µM | TGI (KM12 colon): > 100 µM | TGI (RXF 393 renal): > 100 µM | TGI (SF-539 CNS): > 100 µM | TGI (A549 NSCLC): > 100 µM | TGI (DU-145 prostate): > 100 µM | TGI (HL-60(TB) leukemia): > 100 µM | TGI (MCF7 breast): > 100 µM | TGI (OVCAR-3 ovarian): > 100 µM | TGI (CAKI-1 renal): > 100 µM | TGI (UACC-62 melanoma): > 100 µM | TGI (UACC-257 melanoma): > 100 µM | TGI (T-47D breast): > 100 µM | TGI (RPMI-8226 leukemia): > 100 µM | TGI (BT-549 breast): > 100 µM | TGI (OVCAR-4 ovarian): > 100 µM | TGI (LOX IMVI melanoma): > 100 µM | TGI (SK-MEL-28 melanoma): > 100 µM | TGI (SW-620 colon): > 100 µM | TGI (SK-MEL-2 melanoma): > 100 µM | TGI (TK-10 renal): > 100 µM | TGI (SR leukemia): > 100 µM | TGI (IGROV1 ovarian): > 100 µM | TGI (SN12C renal): > 100 µM | TGI (SNB-19 CNS): > 100 µM | TGI (NCI-H460 lung): > 100 µM | TGI (OVCAR-8 ovarian): > 100 µM | TGI (U251 CNS): > 100 µM | TGI (MDA-MB-231 breast): > 100 µM | TGI (HOP-62 NSCLC): > 100 µM | TGI (EKVX NSCLC): > 100 µM | TGI (HCT-116 colon): > 100 µM | TGI (NCI-H226 lung): > 100 µM | TGI (K-562 leukemia): > 100 µM | TGI (HOP-92 NSCLC): > 100 µM | TGI (HT29 colon): > 100 µM | TGI (PC-3 prostate): > 100 µM | TGI (HCT-15 colon): > 100 µM | TGI (ACHN renal): > 100 µM | TGI (786-0 renal): > 100 µM | TGI (SK-OV-3 ovarian): > 100 µM | TGI (COLO 205 colon): > 100 µM

CNC(=S)NNC1=NCCCN1
TGI (MOLT-4 leukemia): > 100 µM | TGI (M14 melanoma): > 100 µM | TGI (MDA-N): > 100 µM | TGI (OVCAR-5 ovarian): > 100 µM | TGI (UO-31 renal): > 100 µM | TGI (SK-MEL-5 melanoma): > 100 µM | TGI (NCI/ADR-RES ovarian): > 100 µM | TGI (SF-295 CNS): > 100 µM | TGI (HCC-2998 colon): > 100 µM | TGI (MDA-MB-435): > 100 µM | TGI (HS 578T breast): > 100 µM | TGI (A498 renal): > 100 µM | TGI (NCI-H23 lung): > 100 µM | TGI (KM12 colon): > 100 µM | TGI (RXF 393 renal): > 100 µM | TGI (SNB-75 CNS): > 100 µM | TGI (SF-539 CNS): > 100 µM | TGI (A549 NSCLC): > 100 µM | TGI (NCI-H522 lung): > 100 µM | TGI (HL-60(TB) leukemia): > 100 µM | TGI (MCF7 breast): > 100 µM | TGI (OVCAR-3 ovarian): > 100 µM | TGI (CAKI-1 renal): > 100 µM | TGI (UACC-62 melanoma): > 100 µM | TGI (UACC-257 melanoma): > 100 µM | TGI (T-47D breast): > 100 µM | TGI (RPMI-8226 leukemia): > 100 µM | TGI (BT-549 breast): > 100 µM | TGI (OVCAR-4 ovarian): > 100 µM | TGI (LOX IMVI melanoma): > 100 µM | TGI (SK-MEL-28 melanoma): > 100 µM | TGI (SW-620 colon): > 100 µM | TGI (CCRF-CEM leukemia): > 100 µM | TGI (SK-MEL-2 melanoma): > 100 µM | TGI (TK-10 renal): > 100 µM | TGI (SR leukemia): > 100 µM | TGI (IGROV1 ovarian): > 100 µM | TGI (SNB-19 CNS): > 100 µM | TGI (NCI-H460 lung): > 100 µM | TGI (OVCAR-8 ovarian): > 100 µM | TGI (U251 CNS): > 100 µM | TGI (MDA-MB-231 breast): > 100 µM | TGI (HOP-62 NSCLC): > 100 µM | TGI (EKVX NSCLC): > 100 µM | TGI (HCT-116 colon): > 100 µM | TGI (NCI-H226 lung): > 100 µM | TGI (K-562 leukemia): > 100 µM | TGI (MALME-3M melanoma): > 100 µM | TGI (HOP-92 NSCLC): > 100 µM | TGI (HT29 colon): > 100 µM | TGI (SF-268 CNS): > 100 µM | TGI (PC-3 prostate): > 100 µM | TGI (HCT-15 colon): > 100 µM | TGI (ACHN renal): > 100 µM | TGI (786-0 renal): > 100 µM | TGI (SK-OV-3 ovarian): > 100 µM | TGI (COLO 205 colon): > 100 µM

COc1cc(S(=O)(=O)N/N=C/C=C/c2ccccc2)c(OC)cc1NC(C)=O
TGI (M14 melanoma): > 100 µM | TGI (MDA-N): > 100 µM | TGI (OVCAR-5 ovarian): > 100 µM | TGI (UO-31 renal): > 100 µM | TGI (SK-MEL-5 melanoma): 33.3 µM | TGI (NCI/ADR-RES ovarian): > 100 µM | TGI (SF-295 CNS): > 100 µM | TGI (MDA-MB-435): > 100 µM | TGI (HS 578T breast): > 100 µM | TGI (A498 renal): > 100 µM | TGI (NCI-H23 lung): > 100 µM | TGI (KM12 colon): > 100 µM | TGI (RXF 393 renal): > 100 µM | TGI (SNB-75 CNS): > 100 µM | TGI (SF-539 CNS): 81.7 µM | TGI (A549 NSCLC): > 100 µM | TGI (DU-145 prostate): > 100 µM | TGI (NCI-H522 lung): > 100 µM | TGI (HL-60(TB) leukemia): > 100 µM | TGI (MCF7 breast): > 100 µM | TGI (OVCAR-3 ovarian): > 100 µM | TGI (CAKI-1 renal): > 100 µM | TGI (UACC-62 melanoma): > 100 µM | TGI (UACC-257 melanoma): > 100 µM | TGI (T-47D breast): > 100 µM | TGI (RPMI-8226 leukemia): 60.9 µM | TGI (BT-549 breast): > 100 µM | TGI (OVCAR-4 ovarian): > 100 µM | TGI (LOX IMVI melanoma): > 100 µM | TGI (SK-MEL-28 melanoma): > 100 µM | TGI (SW-620 colon): > 100 µM | TGI (CCRF-CEM leukemia): > 100 µM | TGI (SK-MEL-2 melanoma): > 100 µM | TGI (SR leukemia): > 100 µM | TGI (IGROV1 ovarian): > 100 µM | TGI (SN12C renal): > 100 µM | TGI (SNB-19 CNS): > 100 µM | TGI (OVCAR-8 ovarian): > 100 µM | TGI (HOP-62 NSCLC): > 100 µM | TGI (EKVX NSCLC): > 100 µM | TGI (HCT-116 colon): > 100 µM | TGI (MALME-3M melanoma): > 100 µM | TGI (HOP-92 NSCLC): > 100 µM | TGI (HT29 colon): > 100 µM | TGI (SF-268 CNS): > 100 µM | TGI (PC-3 prostate): > 100 µM | TGI (HCT-15 colon): > 100 µM | TGI (ACHN renal): > 100 µM | TGI (786-0 renal): > 100 µM | TGI (SK-OV-3 ovarian): > 100 µM | TGI (COLO 205 colon): 45.8 µM

From PubChem BioAssay (NCI)
